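Interpolation was linear, between the two tested concentrations surrounding the appropriate level; five concentrations were tested over 48 hours in 96-well plates. GI50: concentration for 50% inhibition of growth.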 Calls of active or inactive are those of the source. Cut-off read from the data, not from the text of the source: active = GI50 up to about 1.1 µM and inactive = higher.
Tests used:
Assay in all cases: NCI tumour cell line growth inhibition, 48 h
786-0 = system: 786-0
A498 = system: A498
A549 = system: A549
ACHN = system: ACHN
BT-549 = system: BT-549
CAKI-1 = system: CAKI-1
CCRF-CEM = system: CCRF-CEM
COLO 205 = system: COLO 205
DU-145 = system: DU-145
EKVX = system: EKVX
HCC 2998 = system: HCC 2998
HCT-116 = system: HCT-116
HCT-15 = system: HCT-15
HOP-62 = system: HOP-62
HOP-92 = system: HOP-92
HT-29 = system: HT-29
Hs-578T = system: Hs-578T
IGROV-1 = system: IGROV-1
KM12 = system: KM12
LOX IMVI = system: LOX IMVI
M14 = system: M14
MCF7 = system: MCF7
MDA-MB-231 = system: MDA-MB-231
MDA-MB-435 = system: MDA-MB-435
MDA-N = system: MDA-N
MOLT-4 = system: MOLT-4
Malme-3M = system: Malme-3M
NCI-H226 = system: NCI-H226
NCI-H23 = system: NCI-H23
NCI-H460 = system: NCI-H460
NCI-H522 = system: NCI-H522
NCI/ADR-RES = system: NCI/ADR-RES
OVCAR-3 = system: OVCAR-3
OVCAR-4 = system: OVCAR-4
OVCAR-5 = system: OVCAR-5
OVCAR-8 = system: OVCAR-8
PC-3 = system: PC-3
RXF 393 = system: RXF 393
SF-268 = system: SF-268
SF-295 = system: SF-295
SF-539 = system: SF-539
SK-MEL-28 = system: SK-MEL-28
SK-MEL-2 = system: SK-MEL-2
SK-MEL-5 = system: SK-MEL-5
SK-OV-3 = system: SK-OV-3
SN12C = system: SN12C
SNB-19 = system: SNB-19
SNB-75 = system: SNB-75
SR = system: SR
SW-620 = system: SW-620
T47D = system: T47D
TK-10 = system: TK-10
U-251 = system: U-251
UACC-257 = system: UACC-257
UACC-62 = system: UACC-62
UO-31 = system: UO-31

SMILES: O=C(Cc1nc2ccc([N+](=O)[O-])cc2nc1O)C(=O)Nc1cc(Cl)c(Cl)cc1Cl
- GI50 (786-0): > 100 µM (inactive)
- GI50 (A498): > 100 µM (inactive)
- GI50 (A549): > 100 µM (inactive)
- GI50 (ACHN): > 100 µM (inactive)
- GI50 (BT-549): > 100 µM (inactive)
- GI50 (CAKI-1): > 100 µM (inactive)
- GI50 (CCRF-CEM): > 100 µM (inactive)
- GI50 (COLO 205): > 100 µM (inactive)
- GI50 (DU-145): > 100 µM (inactive)
- GI50 (EKVX): 54.3 µM (inactive)
- GI50 (HCC 2998): > 100 µM (inactive)
- GI50 (HCT-116): > 100 µM (inactive)
- GI50 (HCT-15): > 100 µM
- GI50 (HOP-62): > 100 µM (inactive)
- GI50 (HOP-92): > 100 µM (inactive)
- GI50 (HT-29): > 100 µM (inactive)
- GI50 (Hs-578T): > 100 µM (inactive)
- GI50 (IGROV-1): > 100 µM (inactive)
- GI50 (KM12): 65.6 µM (inactive)
- GI50 (LOX IMVI): 69 µM (inactive)
- GI50 (M14): > 100 µM (inactive)
- GI50 (MCF7): > 100 µM (inactive)
- GI50 (MDA-MB-231): > 100 µM (inactive)
- GI50 (MDA-MB-435): > 100 µM (inactive)
- GI50 (MDA-N): > 100 µM (inactive)
- GI50 (MOLT-4): 51.4 µM (inactive)
- GI50 (Malme-3M): > 100 µM (inactive)
- GI50 (NCI-H226): > 100 µM (inactive)
- GI50 (NCI-H23): > 100 µM (inactive)
- GI50 (NCI-H460): > 100 µM (inactive)
- GI50 (NCI-H522): > 100 µM (inactive)
- GI50 (NCI/ADR-RES): > 100 µM (inactive)
- GI50 (OVCAR-3): > 100 µM (inactive)
- GI50 (OVCAR-4): > 100 µM (inactive)
- GI50 (OVCAR-5): > 100 µM (inactive)
- GI50 (OVCAR-8): > 100 µM (inactive)
- GI50 (PC-3): > 100 µM (inactive)
- GI50 (RXF 393): > 100 µM (inactive)
- GI50 (SF-268): > 100 µM (inactive)
- GI50 (SF-295): > 100 µM (inactive)
- GI50 (SF-539): > 100 µM (inactive)
- GI50 (SK-MEL-28): > 100 µM (inactive)
- GI50 (SK-MEL-2): > 100 µM (inactive)
- GI50 (SK-MEL-5): > 100 µM (inactive)
- GI50 (SK-OV-3): 71.3 µM (inactive)
- GI50 (SN12C): > 100 µM (inactive)
- GI50 (SNB-19): > 100 µM (inactive)
- GI50 (SNB-75): > 100 µM (inactive)
- GI50 (SR): 41.8 µM (inactive)
- GI50 (SW-620): > 100 µM (inactive)
- GI50 (T47D): > 100 µM (inactive)
- GI50 (TK-10): > 100 µM (inactive)
- GI50 (U-251): > 100 µM (inactive)
- GI50 (UACC-257): > 100 µM (inactive)
- GI50 (UACC-62): > 100 µM (inactive)
- GI50 (UO-31): > 100 µM (inactive)
